Consider three molecules from the kinase profiling compilation of Christmann-Franck et al. (2016).

The structures appear in SMILES notation.

PIM1 (human), sequence (P11309 whole entry, looked up): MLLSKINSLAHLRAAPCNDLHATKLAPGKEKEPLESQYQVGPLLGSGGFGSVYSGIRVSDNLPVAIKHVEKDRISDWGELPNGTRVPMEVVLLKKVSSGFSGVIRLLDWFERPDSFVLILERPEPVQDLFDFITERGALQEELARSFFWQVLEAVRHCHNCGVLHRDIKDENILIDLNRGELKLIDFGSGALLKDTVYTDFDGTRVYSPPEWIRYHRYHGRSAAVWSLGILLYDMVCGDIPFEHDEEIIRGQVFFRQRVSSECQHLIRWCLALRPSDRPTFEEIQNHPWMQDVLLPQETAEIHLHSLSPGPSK
NUAK2 (human), sequence (Q9H093 whole entry, looked up): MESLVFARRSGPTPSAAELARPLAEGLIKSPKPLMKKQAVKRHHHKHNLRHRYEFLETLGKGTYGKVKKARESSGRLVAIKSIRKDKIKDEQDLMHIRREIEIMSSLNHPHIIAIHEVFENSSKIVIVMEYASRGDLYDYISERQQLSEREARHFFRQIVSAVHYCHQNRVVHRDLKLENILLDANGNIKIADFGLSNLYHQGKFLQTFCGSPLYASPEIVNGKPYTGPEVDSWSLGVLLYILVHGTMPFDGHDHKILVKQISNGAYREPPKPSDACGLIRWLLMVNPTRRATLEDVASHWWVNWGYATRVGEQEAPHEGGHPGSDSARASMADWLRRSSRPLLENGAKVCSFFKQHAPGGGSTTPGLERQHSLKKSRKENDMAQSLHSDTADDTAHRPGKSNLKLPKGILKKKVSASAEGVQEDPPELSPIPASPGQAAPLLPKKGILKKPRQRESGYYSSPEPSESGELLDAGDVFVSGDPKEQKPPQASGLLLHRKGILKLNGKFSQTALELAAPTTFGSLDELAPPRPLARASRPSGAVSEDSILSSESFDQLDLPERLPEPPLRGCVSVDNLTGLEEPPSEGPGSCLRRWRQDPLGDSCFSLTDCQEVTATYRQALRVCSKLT

The first assay deals with NEK11 (human) (UniProt Q8NG66). Description: radiometric filter-binding kinase assay, Kinase HotSpot. To be noted: compound 0.5 µM; ATP 10 µM.
NEK11 (human), sequence (Q8NG66 whole entry, looked up): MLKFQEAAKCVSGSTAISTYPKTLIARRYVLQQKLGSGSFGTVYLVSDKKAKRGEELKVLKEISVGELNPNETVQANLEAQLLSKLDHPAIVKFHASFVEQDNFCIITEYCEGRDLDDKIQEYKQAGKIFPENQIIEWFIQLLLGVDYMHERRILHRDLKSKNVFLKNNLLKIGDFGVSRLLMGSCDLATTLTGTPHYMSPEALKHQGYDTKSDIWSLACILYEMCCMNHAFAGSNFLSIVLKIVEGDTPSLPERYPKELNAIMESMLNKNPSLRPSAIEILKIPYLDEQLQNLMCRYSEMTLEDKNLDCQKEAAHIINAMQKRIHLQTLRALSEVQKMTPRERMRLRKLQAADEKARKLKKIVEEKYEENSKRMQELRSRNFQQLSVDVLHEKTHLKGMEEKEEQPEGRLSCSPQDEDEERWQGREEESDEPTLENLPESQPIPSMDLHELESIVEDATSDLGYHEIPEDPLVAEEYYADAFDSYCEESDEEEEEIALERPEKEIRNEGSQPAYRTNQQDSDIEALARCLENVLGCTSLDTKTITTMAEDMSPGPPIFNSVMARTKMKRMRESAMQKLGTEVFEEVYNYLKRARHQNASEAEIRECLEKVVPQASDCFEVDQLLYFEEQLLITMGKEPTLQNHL
For `CC(C)[C@H](CO)Nc1nc(Nc2cc(N)cc(Cl)c2)c2ncn(C(C)C)c2n1`, the residual activity worked out at 84.2%.
Still for that read-out and setting: in the case of `O=C1Nc2ccccc2/C1=C1\Nc2ccccc2\C1=N/O` it was 98.2%; in that of `O=C(Nc1cccc(Nc2cc(Nc3cccc(C(F)(F)F)c3)ncn2)c1)C1CC1`, 94.3%.

The target in the next assay is NEK2 (human) (UniProt P51955). The description is as above. To be noted: compound 0.5 µM; ATP 10 µM.
Turning to `CC(C)[C@H](CO)Nc1nc(Nc2cc(N)cc(Cl)c2)c2ncn(C(C)C)c2n1`, the residual activity is 94.4%.
Same read-out and setting: the result for `O=C1Nc2ccccc2/C1=C1\Nc2ccccc2\C1=N/O` reads 109%.
On the same count and under the same terms, in the case of `O=C(Nc1cccc(Nc2cc(Nc3cccc(C(F)(F)F)c3)ncn2)c1)C1CC1` it was 99.5%.

In another assay the target is NEK4 (human) (UniProt P51957). The description is as above. Particulars: compound 0.5 µM; ATP 10 µM.
NEK4 (human), sequence (P51957 whole entry, looked up): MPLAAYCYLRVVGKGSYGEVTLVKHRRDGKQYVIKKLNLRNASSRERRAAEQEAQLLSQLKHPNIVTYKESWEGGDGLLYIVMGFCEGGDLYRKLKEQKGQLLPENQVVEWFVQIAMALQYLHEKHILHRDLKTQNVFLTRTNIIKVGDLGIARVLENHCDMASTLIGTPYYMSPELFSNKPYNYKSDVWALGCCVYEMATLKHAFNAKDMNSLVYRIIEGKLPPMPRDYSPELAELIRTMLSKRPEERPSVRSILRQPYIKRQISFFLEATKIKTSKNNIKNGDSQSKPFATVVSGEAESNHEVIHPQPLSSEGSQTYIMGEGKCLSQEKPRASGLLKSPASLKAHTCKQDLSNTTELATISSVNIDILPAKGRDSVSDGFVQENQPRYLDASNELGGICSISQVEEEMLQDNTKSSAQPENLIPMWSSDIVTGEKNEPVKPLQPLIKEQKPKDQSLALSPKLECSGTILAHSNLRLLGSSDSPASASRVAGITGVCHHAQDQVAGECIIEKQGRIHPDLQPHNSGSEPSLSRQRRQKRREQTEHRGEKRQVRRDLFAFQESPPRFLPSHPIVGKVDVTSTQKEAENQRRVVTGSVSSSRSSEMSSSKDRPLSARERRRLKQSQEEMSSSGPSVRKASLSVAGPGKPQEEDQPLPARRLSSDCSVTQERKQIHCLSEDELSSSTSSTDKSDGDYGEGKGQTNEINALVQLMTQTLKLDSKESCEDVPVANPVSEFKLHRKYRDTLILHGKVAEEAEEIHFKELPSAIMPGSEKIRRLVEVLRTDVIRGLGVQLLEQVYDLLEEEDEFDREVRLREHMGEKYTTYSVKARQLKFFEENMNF
Turning to `CC(C)[C@H](CO)Nc1nc(Nc2cc(N)cc(Cl)c2)c2ncn(C(C)C)c2n1`, the residual activity was found to be 80.2%.
On to `O=C1Nc2ccccc2/C1=C1\Nc2ccccc2\C1=N/O`, for which the residual activity is 95%.
Still for that read-out and setting: in the case of `O=C(Nc1cccc(Nc2cc(Nc3cccc(C(F)(F)F)c3)ncn2)c1)C1CC1` it was 90.6%.

In another assay the target is NTRK3 (human) (UniProt Q16288). The assay is described as above. To be noted: compound 0.5 µM; ATP 10 µM.
As to `CC(C)[C@H](CO)Nc1nc(Nc2cc(N)cc(Cl)c2)c2ncn(C(C)C)c2n1`, the residual activity was determined as 4.42%.
The same measure, in the same setting: in the case of `O=C1Nc2ccccc2/C1=C1\Nc2ccccc2\C1=N/O` it was 2.17%; in that of `O=C(Nc1cccc(Nc2cc(Nc3cccc(C(F)(F)F)c3)ncn2)c1)C1CC1`, 95.1%.

In another assay the target is NUAK1 (human) (UniProt O60285). The description is as above. Particulars: compound 0.5 µM; ATP 10 µM.
Consider `CC(C)[C@H](CO)Nc1nc(Nc2cc(N)cc(Cl)c2)c2ncn(C(C)C)c2n1`, for which the residual activity is 61.5%.
On the same count and under the same terms, the result for `O=C1Nc2ccccc2/C1=C1\Nc2ccccc2\C1=N/O` reads 8.89%; that for `O=C(Nc1cccc(Nc2cc(Nc3cccc(C(F)(F)F)c3)ncn2)c1)C1CC1`, 102%.

Another assay addresses NUAK2 (human) (UniProt Q9H093). The description is as above. To be noted: compound 0.5 µM; ATP 10 µM.
`CC(C)[C@H](CO)Nc1nc(Nc2cc(N)cc(Cl)c2)c2ncn(C(C)C)c2n1`: the residual activity is 81.4%.
The same measure, in the same setting: the result for `O=C1Nc2ccccc2/C1=C1\Nc2ccccc2\C1=N/O` reads 72.5%; that for `O=C(Nc1cccc(Nc2cc(Nc3cccc(C(F)(F)F)c3)ncn2)c1)C1CC1`, 103%.

The target of a further assay is PAK7 (human) (UniProt Q9P286). The description is as above. To be noted: compound 0.5 µM; ATP 10 µM.
As to `CC(C)[C@H](CO)Nc1nc(Nc2cc(N)cc(Cl)c2)c2ncn(C(C)C)c2n1`, the residual activity stood at 44.3%.
Consider `O=C1Nc2ccccc2/C1=C1\Nc2ccccc2\C1=N/O`, for which the residual activity is 89.3%.
Same read-out and setting: in the case of `O=C(Nc1cccc(Nc2cc(Nc3cccc(C(F)(F)F)c3)ncn2)c1)C1CC1` it was 97.5%.

Another assay concerns the target PIM1 (human) (UniProt P11309). The assay is described as above. Particulars: compound 0.5 µM; ATP 10 µM.
For the molecule `CC(C)[C@H](CO)Nc1nc(Nc2cc(N)cc(Cl)c2)c2ncn(C(C)C)c2n1`, the residual activity amounted to 98%.
Regarding `O=C1Nc2ccccc2/C1=C1\Nc2ccccc2\C1=N/O`, the residual activity is 85.2%.
Still for that read-out and setting: in the case of `O=C(Nc1cccc(Nc2cc(Nc3cccc(C(F)(F)F)c3)ncn2)c1)C1CC1` it was 104%.

A further assay concerns the target PRKCZ (human) (UniProt Q05513). The description is as above. To be noted: compound 0.5 µM; ATP 10 µM.
`CC(C)[C@H](CO)Nc1nc(Nc2cc(N)cc(Cl)c2)c2ncn(C(C)C)c2n1`: the residual activity was 101%.
The same measure, in the same setting: in the case of `O=C1Nc2ccccc2/C1=C1\Nc2ccccc2\C1=N/O` it was 95.2%; in that of `O=C(Nc1cccc(Nc2cc(Nc3cccc(C(F)(F)F)c3)ncn2)c1)C1CC1`, 104%.

The target of a further assay is PRKX (human) (UniProt P51817). Described as above. Particulars: compound 0.5 µM; ATP 10 µM.
With `CC(C)[C@H](CO)Nc1nc(Nc2cc(N)cc(Cl)c2)c2ncn(C(C)C)c2n1`, the residual activity came out at 101%.
Same read-out and setting: in the case of `O=C1Nc2ccccc2/C1=C1\Nc2ccccc2\C1=N/O` it was 88.8%; in that of `O=C(Nc1cccc(Nc2cc(Nc3cccc(C(F)(F)F)c3)ncn2)c1)C1CC1`, 107%.

The target of a further assay is PTK6 (human) (UniProt Q13882). The assay is described as above. Particulars: compound 0.5 µM; ATP 10 µM.
PTK6 (human), sequence (Q13882 whole entry, looked up): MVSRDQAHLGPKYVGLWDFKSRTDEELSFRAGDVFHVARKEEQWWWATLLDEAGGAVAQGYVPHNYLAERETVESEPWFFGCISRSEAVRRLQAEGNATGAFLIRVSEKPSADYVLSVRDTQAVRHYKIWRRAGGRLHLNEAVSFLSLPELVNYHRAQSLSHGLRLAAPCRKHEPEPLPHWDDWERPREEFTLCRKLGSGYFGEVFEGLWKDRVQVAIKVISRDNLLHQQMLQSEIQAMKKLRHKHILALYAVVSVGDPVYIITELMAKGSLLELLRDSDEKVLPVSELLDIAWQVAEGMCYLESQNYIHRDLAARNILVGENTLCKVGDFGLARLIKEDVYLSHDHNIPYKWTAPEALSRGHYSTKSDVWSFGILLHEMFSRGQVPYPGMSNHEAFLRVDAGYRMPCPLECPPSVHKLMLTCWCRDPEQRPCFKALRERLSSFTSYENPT
Turning to `CC(C)[C@H](CO)Nc1nc(Nc2cc(N)cc(Cl)c2)c2ncn(C(C)C)c2n1`, the residual activity was 85.6%.
The same measure, in the same setting: the result for `O=C1Nc2ccccc2/C1=C1\Nc2ccccc2\C1=N/O` reads 97.2%.
On the same count and under the same terms, the result for `O=C(Nc1cccc(Nc2cc(Nc3cccc(C(F)(F)F)c3)ncn2)c1)C1CC1` reads 98.4%.

The target in the next assay is RET (human) (UniProt P07949). The assay is described as above. To be noted: compound 0.5 µM; ATP 10 µM.
RET (human), sequence (P07949 whole entry, looked up): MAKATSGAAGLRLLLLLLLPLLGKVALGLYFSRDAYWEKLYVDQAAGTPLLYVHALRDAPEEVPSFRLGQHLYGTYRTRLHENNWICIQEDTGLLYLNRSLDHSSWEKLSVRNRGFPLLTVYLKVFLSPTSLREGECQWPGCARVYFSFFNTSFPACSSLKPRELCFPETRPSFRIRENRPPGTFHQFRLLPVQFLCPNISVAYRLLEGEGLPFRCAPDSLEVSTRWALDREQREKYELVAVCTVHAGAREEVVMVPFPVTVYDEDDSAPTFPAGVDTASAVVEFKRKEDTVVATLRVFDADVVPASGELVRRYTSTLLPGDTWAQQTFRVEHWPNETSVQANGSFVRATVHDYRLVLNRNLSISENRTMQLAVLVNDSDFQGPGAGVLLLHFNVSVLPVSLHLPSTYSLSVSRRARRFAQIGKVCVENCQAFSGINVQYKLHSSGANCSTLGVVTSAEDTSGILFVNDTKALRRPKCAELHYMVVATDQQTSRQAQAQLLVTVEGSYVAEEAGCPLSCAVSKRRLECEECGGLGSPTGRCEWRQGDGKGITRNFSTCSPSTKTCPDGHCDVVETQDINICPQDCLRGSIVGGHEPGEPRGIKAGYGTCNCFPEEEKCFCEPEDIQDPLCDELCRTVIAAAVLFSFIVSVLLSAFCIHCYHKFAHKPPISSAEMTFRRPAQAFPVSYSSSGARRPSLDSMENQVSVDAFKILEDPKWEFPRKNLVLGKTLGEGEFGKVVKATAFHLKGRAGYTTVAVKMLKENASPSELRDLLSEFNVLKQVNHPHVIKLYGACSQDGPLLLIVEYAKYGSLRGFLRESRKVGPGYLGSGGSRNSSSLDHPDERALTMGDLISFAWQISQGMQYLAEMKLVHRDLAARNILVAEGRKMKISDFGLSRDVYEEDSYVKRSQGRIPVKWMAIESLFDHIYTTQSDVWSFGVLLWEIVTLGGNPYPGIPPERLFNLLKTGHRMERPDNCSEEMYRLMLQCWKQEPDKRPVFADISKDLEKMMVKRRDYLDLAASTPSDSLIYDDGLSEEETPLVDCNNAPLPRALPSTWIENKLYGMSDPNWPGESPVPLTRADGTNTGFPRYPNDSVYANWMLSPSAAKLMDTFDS
`CC(C)[C@H](CO)Nc1nc(Nc2cc(N)cc(Cl)c2)c2ncn(C(C)C)c2n1`: the residual activity stood at 61.6%.
As for `O=C1Nc2ccccc2/C1=C1\Nc2ccccc2\C1=N/O`, the residual activity stood at 8.05%.
On the same count and under the same terms, in the case of `O=C(Nc1cccc(Nc2cc(Nc3cccc(C(F)(F)F)c3)ncn2)c1)C1CC1` it was 109%.

For the next assay, the target named is ROCK1 (human) (UniProt Q13464). Described as above. Particulars: compound 0.5 µM; ATP 10 µM.
As to `CC(C)[C@H](CO)Nc1nc(Nc2cc(N)cc(Cl)c2)c2ncn(C(C)C)c2n1`, the residual activity came out at 90%.
On the same count and under the same terms, in the case of `O=C1Nc2ccccc2/C1=C1\Nc2ccccc2\C1=N/O` it was 101%.
The same measure, in the same setting: the result for `O=C(Nc1cccc(Nc2cc(Nc3cccc(C(F)(F)F)c3)ncn2)c1)C1CC1` reads 98.7%.

The target of a further assay is RPS6KB1 (human) (UniProt P23443). The assay is described as above. To be noted: compound 0.5 µM; ATP 10 µM.
In the case of `CC(C)[C@H](CO)Nc1nc(Nc2cc(N)cc(Cl)c2)c2ncn(C(C)C)c2n1`, the residual activity came out at 95.5%.
Consider `O=C1Nc2ccccc2/C1=C1\Nc2ccccc2\C1=N/O`, for which the residual activity was determined as 75.9%.
The same measure, in the same setting: in the case of `O=C(Nc1cccc(Nc2cc(Nc3cccc(C(F)(F)F)c3)ncn2)c1)C1CC1` it was 98%.

For the next assay, the target named is SGK3 (human) (UniProt Q96BR1). The description is as above. Particulars: compound 0.5 µM; ATP 10 µM.
SGK3 (human), sequence (Q96BR1 whole entry, looked up): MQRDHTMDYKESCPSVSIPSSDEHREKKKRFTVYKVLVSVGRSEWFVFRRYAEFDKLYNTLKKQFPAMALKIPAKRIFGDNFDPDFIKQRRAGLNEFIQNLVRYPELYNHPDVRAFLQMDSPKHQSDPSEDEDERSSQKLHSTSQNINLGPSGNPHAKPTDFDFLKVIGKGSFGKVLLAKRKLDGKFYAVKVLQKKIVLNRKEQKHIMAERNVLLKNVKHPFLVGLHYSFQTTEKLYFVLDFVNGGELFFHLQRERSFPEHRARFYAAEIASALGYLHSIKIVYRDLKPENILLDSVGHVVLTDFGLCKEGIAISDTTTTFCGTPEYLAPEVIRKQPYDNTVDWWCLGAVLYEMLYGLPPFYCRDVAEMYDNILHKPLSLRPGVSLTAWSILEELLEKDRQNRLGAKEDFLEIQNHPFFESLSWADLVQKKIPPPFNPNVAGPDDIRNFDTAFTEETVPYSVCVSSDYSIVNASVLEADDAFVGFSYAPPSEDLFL
Take `CC(C)[C@H](CO)Nc1nc(Nc2cc(N)cc(Cl)c2)c2ncn(C(C)C)c2n1`: the residual activity was determined as 99.9%.
Still for that read-out and setting: the result for `O=C1Nc2ccccc2/C1=C1\Nc2ccccc2\C1=N/O` reads 102%; that for `O=C(Nc1cccc(Nc2cc(Nc3cccc(C(F)(F)F)c3)ncn2)c1)C1CC1`, 106%.

Another assay addresses SRPK2 (human) (UniProt P78362). Described as above. Particulars: compound 0.5 µM; ATP 10 µM.
As for `CC(C)[C@H](CO)Nc1nc(Nc2cc(N)cc(Cl)c2)c2ncn(C(C)C)c2n1`, the residual activity is 31%.
Regarding `O=C1Nc2ccccc2/C1=C1\Nc2ccccc2\C1=N/O`, the residual activity came out at 91.3%.
On the same count and under the same terms, the result for `O=C(Nc1cccc(Nc2cc(Nc3cccc(C(F)(F)F)c3)ncn2)c1)C1CC1` reads 92%.

A further assay concerns the target SRPK3 (human) (UniProt Q9UPE1). The description is as above. Particulars: compound 0.5 µM; ATP 10 µM.
Regarding `CC(C)[C@H](CO)Nc1nc(Nc2cc(N)cc(Cl)c2)c2ncn(C(C)C)c2n1`, the residual activity came out at 37.7%.
Same read-out and setting: in the case of `O=C1Nc2ccccc2/C1=C1\Nc2ccccc2\C1=N/O` it was 97.5%; in that of `O=C(Nc1cccc(Nc2cc(Nc3cccc(C(F)(F)F)c3)ncn2)c1)C1CC1`, 103%.

A further assay concerns the target STK10 (human) (UniProt O94804). Described as above. Particulars: compound 0.5 µM; ATP 10 µM.
On to `CC(C)[C@H](CO)Nc1nc(Nc2cc(N)cc(Cl)c2)c2ncn(C(C)C)c2n1`, for which the residual activity was 55.6%.
Same read-out and setting: in the case of `O=C1Nc2ccccc2/C1=C1\Nc2ccccc2\C1=N/O` it was 74%; in that of `O=C(Nc1cccc(Nc2cc(Nc3cccc(C(F)(F)F)c3)ncn2)c1)C1CC1`, 95.7%.

The target in a further assay is STK3 (human) (UniProt Q13188). Described as above. To be noted: compound 0.5 µM; ATP 10 µM.
On to `CC(C)[C@H](CO)Nc1nc(Nc2cc(N)cc(Cl)c2)c2ncn(C(C)C)c2n1`, for which the residual activity came to 70%.
Still for that read-out and setting: in the case of `O=C1Nc2ccccc2/C1=C1\Nc2ccccc2\C1=N/O` it was 19.9%; in that of `O=C(Nc1cccc(Nc2cc(Nc3cccc(C(F)(F)F)c3)ncn2)c1)C1CC1`, 102%.

The target in a further assay is TXK (human) (UniProt P42681). The description is as above. Particulars: compound 0.5 µM; ATP 10 µM.
TXK (human), sequence (P42681 whole entry, looked up): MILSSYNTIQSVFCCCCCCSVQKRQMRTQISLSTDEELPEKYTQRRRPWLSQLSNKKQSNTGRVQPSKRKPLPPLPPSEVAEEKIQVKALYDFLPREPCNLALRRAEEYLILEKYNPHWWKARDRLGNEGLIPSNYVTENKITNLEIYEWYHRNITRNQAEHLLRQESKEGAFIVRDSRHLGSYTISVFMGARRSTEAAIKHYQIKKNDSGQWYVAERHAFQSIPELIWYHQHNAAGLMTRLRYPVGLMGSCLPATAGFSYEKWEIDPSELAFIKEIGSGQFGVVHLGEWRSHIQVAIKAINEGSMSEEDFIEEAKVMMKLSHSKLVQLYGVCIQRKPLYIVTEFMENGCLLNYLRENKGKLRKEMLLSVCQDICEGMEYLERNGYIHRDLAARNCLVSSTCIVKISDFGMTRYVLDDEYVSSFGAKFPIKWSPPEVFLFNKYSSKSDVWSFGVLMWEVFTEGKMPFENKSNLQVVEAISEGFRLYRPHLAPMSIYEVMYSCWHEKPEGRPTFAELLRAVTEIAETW
For `CC(C)[C@H](CO)Nc1nc(Nc2cc(N)cc(Cl)c2)c2ncn(C(C)C)c2n1`, the residual activity was determined as 42.5%.
On the same count and under the same terms, the result for `O=C1Nc2ccccc2/C1=C1\Nc2ccccc2\C1=N/O` reads 66.7%; that for `O=C(Nc1cccc(Nc2cc(Nc3cccc(C(F)(F)F)c3)ncn2)c1)C1CC1`, 97.1%.

A further assay addresses ULK2 (human) (UniProt Q8IYT8). Described as above. Particulars: compound 0.5 µM; ATP 10 µM.
`CC(C)[C@H](CO)Nc1nc(Nc2cc(N)cc(Cl)c2)c2ncn(C(C)C)c2n1`: the residual activity was 74.9%.
Same read-out and setting: in the case of `O=C1Nc2ccccc2/C1=C1\Nc2ccccc2\C1=N/O` it was 103%; in that of `O=C(Nc1cccc(Nc2cc(Nc3cccc(C(F)(F)F)c3)ncn2)c1)C1CC1`, 102%.

A word on the residual activity: it is the signal under treatment as a percentage of the control signal.
